From patent publication US20190209539A1, “THIOHYDANTOIN ANDROGEN RECEPTOR ANTAGONISTS FOR THE TREATMENT OF CANCER” (Janssen Pharmaceutica NV, priority 2016, published 2019)
Where a chain is given by its changes, count along the chain named.

What was measured:
[1] = biological target: T1, F876L mutant Androgen Receptor (AR-F876L) (Homo sapiens, UniProt P10275, F877L); test: LNCaP-AR-F876L AG: ARE luciferase reporter assay, agonist mode; format: cell-based; details: maximum % stimulation (agonist response), % of 1 μM R-1881 max
T1 construct: expressed in transfected cells; host or cells: LNCaP F876L cells with ARE firefly luciferase lentiviral construct
T1 sequence (P10275 1-920 F877L): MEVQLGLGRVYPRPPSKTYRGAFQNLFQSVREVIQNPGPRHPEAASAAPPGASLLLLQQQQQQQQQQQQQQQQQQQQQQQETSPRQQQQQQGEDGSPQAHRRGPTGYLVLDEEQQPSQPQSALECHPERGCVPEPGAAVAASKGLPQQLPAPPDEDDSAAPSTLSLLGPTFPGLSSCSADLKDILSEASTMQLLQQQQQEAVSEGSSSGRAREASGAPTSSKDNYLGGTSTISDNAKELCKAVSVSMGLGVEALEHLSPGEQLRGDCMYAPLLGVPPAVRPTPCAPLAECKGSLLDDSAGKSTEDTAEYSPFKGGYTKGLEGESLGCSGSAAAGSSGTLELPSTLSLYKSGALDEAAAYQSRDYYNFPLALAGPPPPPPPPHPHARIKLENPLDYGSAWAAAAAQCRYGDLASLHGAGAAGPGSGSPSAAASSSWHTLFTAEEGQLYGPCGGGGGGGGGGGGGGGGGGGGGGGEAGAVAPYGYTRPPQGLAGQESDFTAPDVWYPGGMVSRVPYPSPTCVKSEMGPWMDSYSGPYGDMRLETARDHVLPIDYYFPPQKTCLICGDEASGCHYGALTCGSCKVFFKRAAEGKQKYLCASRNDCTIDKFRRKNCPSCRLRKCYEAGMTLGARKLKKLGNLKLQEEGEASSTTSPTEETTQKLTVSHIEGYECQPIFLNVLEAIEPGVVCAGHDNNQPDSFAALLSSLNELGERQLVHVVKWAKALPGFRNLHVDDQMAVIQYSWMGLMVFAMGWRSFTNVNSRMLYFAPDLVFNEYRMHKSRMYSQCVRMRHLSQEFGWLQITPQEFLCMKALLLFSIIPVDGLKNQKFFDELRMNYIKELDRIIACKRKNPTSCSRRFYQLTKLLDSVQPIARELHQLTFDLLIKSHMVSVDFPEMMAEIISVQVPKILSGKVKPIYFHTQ
Description: (§1) A stable pooled-population cell line was generated using puromycin (Life Technologies) selection at 1:10,000 v/v. The protocol below was used for both cell lines and for testing of the compounds of Formula (I) of the present invention.
(§2) LNCaP cells were grown to about 80% confluence, media removed and cells rinsed in Hank's balanced salt solution prior to separation from the plate with 0.05% Trypsin EDTA. Cells were lifted and trypsin negated in complete CSS (charcoal stripped serum) culture media. […] Agonist challenge was at 400 pM for WT assay and 600 pM for F876L assay. Plates containing cells and compounds herein were incubated for a further 20-24 hours at 37° C., 5% CO2 before addition of 40 μL/well of Steady-Glo Luciferase Assay System Reagent (Promega# E2520). After 1 h, plates were read for luminescence on a BMG Pherastar.
(§3) EC/IC50 calculations were achieved utilizing calculated RLU data and data fitting macros. Data were fit using least-squares methods to the following formula: […]
(§4) As used herein: pIC50 is defined as—Log10(IC50 expressed in [Molar]). pEC50 is defined as—Log10(EC50 expressed in [Molar]). […] LNCaP-AR-wt ANT refers to the reporter assay using LNCaP cells stably transfected with the Androgen Response Element Firefly Luciferase lentiviral construct and wild-type Androgen Receptor (AR-wt) in Antagonist mode. LNCaP-AR-wt AG refers to the reporter assay using LNCaP cells stably transfected with the Androgen Response Element Firefly Luciferase lentiviral construct and wild-type Androgen Receptor (AR-wt) in Agonist mode. LNCaP-AR-F876L ANT refers to the reporter assay using LNCaP cells stably transfected with the Androgen Response Element Firefly Luciferase lentiviral construct and F876L mutant Androgen Receptor (AR-F876L) in Antagonist mode. LNCaP-AR-F876L AG refers to the reporter assay using LNCaP cells stably transfected with the Androgen Response Element Firefly Luciferase lentiviral construct and F876L mutant Androgen Receptor (AR-F876L) in Agonist mode.

[2] = biological target: T2, wild-type Androgen Receptor (AR-wt) (Homo sapiens, UniProt P10275); test: LNCaP-AR-wt AG: ARE luciferase reporter assay, agonist mode; format: cell-based; details: maximum % stimulation (agonist response), % of 1 μM R-1881 max
T2 construct: expressed in transfected cells; host or cells: LNCaP AR (cs) cells with ARE firefly luciferase lentiviral construct
T2 sequence (P10275 1-920): T1 sequence (P10275 1-920 F877L) with L877F
Description: as §1, §2, §3, §4

Row | Compound | LNCaP-AR-F876L AG MAX % Stim [1] | LNCaP-AR-wt AG MAX % Stim [2]
1 | N#Cc1ncc(N2C(=O)C3(CCC3)N(c3ccc(C(=O)NCCCc4ccccc4)c(F)c3)C2=S)cc1C(F)(F)F [Cpd 57, 4-[6-[6-cyano-5-(trifluoromethyl)-3-pyridyl]-5-oxo-7-thioxo-6,8-diazaspiro[3.4]octan-8-yl]-2-fluoro-N-(3-phenylpropyl)benzamide] | 0.5% | 0.0%
2 | N#Cc1ncc(N2C(=O)C3(CCC3)N(c3ccc(C(=O)NCc4cccs4)c(F)c3)C2=S)cc1C(F)(F)F [Cpd 59, 4-[6-[6-cyano-5-(trifluoromethyl)-3-pyridyl]-5-oxo-7-thioxo-6,8-diazaspiro[3.4]octan-8-yl]-2-fluoro-N-(2-thienylmethyl)benzamide] | 0.7% | 1.5%
3 | Cc1cc(N2C(=O)C3(CCC3)N(c3ccc(Oc4ccncn4)cc3)C2=S)cnc1C#N [Cpd 62, 3-methyl-5-[5-oxo-8-(4-pyrimidin-4-yloxyphenyl)-7-thioxo-6,8-diazaspiro[3.4]octan-6-yl]pyridine-2-carbonitrile] | 0.4% | 0.8%
4 | Cc1cc(N2C(=O)C3(CCC3)N(c3ccc(C(=O)Nc4nccs4)c(F)c3)C2=S)cnc1C#N [Cpd 63, 4-[6-(6-cyano-5-methyl-3-pyridyl)-5-oxo-7-thioxo-6,8-diazaspiro[3.4]octan-8-yl]-2-fluoro-N-thiazol-2-yl-benzamide] | 0.3% | 0.7%
5 | N#Cc1ncc(N2C(=O)C3(CCC3)N(c3ccc(C(=O)NCc4cccnc4)c(F)c3)C2=S)cc1C(F)(F)F [Cpd 67, 4-[6-[6-cyano-5-(trifluoromethyl)-3-pyridyl]-5-oxo-7-thioxo-6,8-diazaspiro[3.4]octan-8-yl]-2-fluoro-N-(3-pyridylmethyl)benzamide] | 0.8% | 1.5%
6 | CCCNC(=O)c1ccc(N2C(=S)N(c3cnc(C#N)c(C(F)(F)F)c3)C(=O)C23CCC3)cc1F [Cpd 68, 4-[6-[6-cyano-5-(trifluoromethyl)-3-pyridyl]-5-oxo-7-thioxo-6,8-diazaspiro[3.4]octan-8-yl]-2-fluoro-N-propyl-benzamide] | 0.9% | 0.2%
7 | N#Cc1ncc(N2C(=O)C3(CCC3)N(c3ccccc3)C2=S)cc1C(F)(F)F [Cpd 70, 5-(5-oxo-8-phenyl-7-thioxo-6,8-diazaspiro[3.4]octan-6-yl)-3-(trifluoromethyl)pyridine-2-carbonitrile] | 0.9% | 0.3%
8 | N#Cc1ncc(N2C(=O)C3(CCC3)N(c3ccc(Oc4ccncn4)cc3)C2=S)cc1C(F)(F)F [Cpd 71, 5-[5-oxo-8-(4-pyrimidin-4-yloxyphenyl)-7-thioxo-6,8-diazaspiro[3.4]octan-6-yl]-3-(trifluoromethyl)pyridine-2-carbonitrile] | 0.9% | 0.5%
9 | N#Cc1ncc(N2C(=O)C3(CCC3)N(c3ccc(C(=O)NCCCN4CCOCC4)c(F)c3)C2=S)cc1C(F)(F)F [Cpd 72, 4-[6-[6-cyano-5-(trifluoromethyl)-3-pyridyl]-5-oxo-7-thioxo-6,8-diazaspiro[3.4]octan-8-yl]-2-fluoro-N-(3-morpholinopropyl)benzamide] | 0.6% | 0.3%
10 | Cc1ccc(NC(=O)c2ccc(N3C(=S)N(c4cnc(C#N)c(C)c4)C(=O)C34CCC4)cc2F)cn1 [Cpd 75, 4-[6-(6-cyano-5-methyl-3-pyridyl)-5-oxo-7-thioxo-6,8-diazaspiro[3.4]octan-8-yl]-2-fluoro-N-(6-methyl-3-pyridyl)benzamide] | 0.8% | 0.8%
11 | N#Cc1ncc(N2C(=O)C3(CCC3)N(c3cccc(CO)c3)C2=S)cc1C(F)(F)F [Cpd 81, 5-[8-[3-(hydroxymethyl)phenyl]-5-oxo-7-thioxo-6,8-diazaspiro[3.4]octan-6-yl]-3-(trifluoromethyl)pyridine-2-carbonitrile] | 1.2% | 0.7%
